# Results published in the supplement of paper PMC13380429.
# Counter-ions that a name gives are not always drawn. ± gives the standard deviation of the averaged measurements.
# Key:
# Conditions in all cases: 72 h
# [1] = tested on: Vero E6; experiment: cell viability relative to DMSO; higher = less toxic
# [2] = tested on: Calu-3; experiment: as above
# [3] = tested on: Caco-2; experiment: as above
# [4] = tested on: HepG2; experiment: as above
# [5] = tested on: U2OS; experiment: as above
# [6] = tested on: Vero E6; experiment: drug sensitivity score (DSS) for viability; higher = more toxic; extreme values may be limits of the assay
# [7] = tested on: Calu-3; experiment: as above
# [8] = tested on: Caco-2; experiment: as above
# [9] = tested on: HepG2; experiment: as above
# [10] = tested on: U2OS; experiment: as above
# [11] = tested on: Vero E6; experiment: relative viability EC50 (midpoint between 100% and the lowest measured viability); higher = less toxic
# [12] = tested on: Calu-3; experiment: as above
# [13] = tested on: Caco-2; experiment: as above
# [14] = tested on: U2OS; experiment: as above
# [15] = tested on: HepG2; experiment: as above
structure (smiles),measurement,setting,value
COc1cc2c(cc1OC)C(c1ccc(N)cc1)=NNC(=O)C2 [CFM-2],cell viability,[1]; 1 nM,98.7%
same,cell viability,[1]; 10 nM,93.8%
same,cell viability,[1]; 100 nM,96.6%
same,cell viability,[1]; 1000 nM,96.1%
same,cell viability,[1]; 10000 nM,100%
same,cell viability,[2]; 1 nM,95.5%
same,cell viability,[2]; 10 nM,100%
same,cell viability,[2]; 100 nM,98.3%
same,cell viability,[2]; 1000 nM,112%
same,cell viability,[2]; 10000 nM,101%
same,cell viability,[3]; 1 nM,93.1%
same,cell viability,[3]; 10 nM,102%
same,cell viability,[3]; 100 nM,98.7%
same,cell viability,[3]; 1000 nM,95.5%
same,cell viability,[3]; 10000 nM,98%
same,cell viability,[4]; 1 nM,109%
same,cell viability,[4]; 10 nM,97.2%
same,cell viability,[4]; 100 nM,104%
same,cell viability,[4]; 1000 nM,113%
same,cell viability,[4]; 10000 nM,71%
same,cell viability,[5]; 1 nM,97.1%
same,cell viability,[5]; 10 nM,98.2%
same,cell viability,[5]; 100 nM,95.4%
same,cell viability,[5]; 1000 nM,95.5%
same,cell viability,[5]; 10000 nM,87.1%
same,drug sensitivity score,[6],0
same,drug sensitivity score,[7],0
same,drug sensitivity score,[8],0
same,drug sensitivity score,[9],0.8
same,drug sensitivity score,[10],0
same,relative viability EC50,[11],> 10 µM
same,relative viability EC50,[12],> 10 µM
same,relative viability EC50,[13],> 10 µM
same,relative viability EC50,[14],> 10 µM
CN(C)C(=O)COC(=O)Cc1ccc(OC(=O)c2ccc(NC(=N)N)cc2)cc1 [Camostat mesylate],cell viability,[1]; 1 nM,95.9%
same,cell viability,[1]; 10 nM,105%
same,cell viability,[1]; 100 nM,88.8%
same,cell viability,[1]; 1000 nM,102%
same,cell viability,[1]; 10000 nM,100%
same,cell viability,[2]; 1 nM,99.8%
same,cell viability,[2]; 10 nM,97.1%
same,cell viability,[2]; 100 nM,104%
same,cell viability,[2]; 1000 nM,91%
same,cell viability,[2]; 10000 nM,97%
same,cell viability,[4]; 1 nM,102%
same,cell viability,[4]; 10 nM,96.2%
same,cell viability,[4]; 100 nM,97%
same,cell viability,[4]; 1000 nM,100%
same,cell viability,[4]; 10000 nM,103%
same,cell viability,[5]; 1 nM,104%
same,cell viability,[5]; 10 nM,107%
same,cell viability,[5]; 100 nM,97.4%
same,cell viability,[5]; 1000 nM,100%
same,cell viability,[5]; 10000 nM,99.4%
same,drug sensitivity score,[6],0
same,drug sensitivity score,[7],0
same,drug sensitivity score,[9],0
same,drug sensitivity score,[10],0
same,relative viability EC50,[11],> 10 µM
same,relative viability EC50,[12],> 10 µM
same,relative viability EC50,[15],> 10 µM
same,relative viability EC50,[14],> 10 µM
Cn1nccc1Nc1nccc(-c2ccn([C@H](CO)c3ccc(Cl)c(F)c3)c(=O)c2)n1 [GDC-0994],cell viability,[1]; 1 nM,104 ± 7.4%
same,cell viability,[1]; 10 nM,101 ± 3.4%
same,cell viability,[1]; 100 nM,101 ± 5.4%
same,cell viability,[1]; 1000 nM,87.75 ± 0.35%
same,cell viability,[1]; 10000 nM,70.9 ± 5.8%
same,cell viability,[2]; 1 nM,99.2 ± 6.9%
same,cell viability,[2]; 10 nM,103 ± 3%
same,cell viability,[2]; 100 nM,97.9 ± 7.3%
same,cell viability,[2]; 1000 nM,96.45 ± 0.78%
same,cell viability,[2]; 10000 nM,110 ± 4.3%
same,cell viability,[3]; 1 nM,97.6 ± 3.7%
same,cell viability,[3]; 10 nM,98.4 ± 3.1%
same,cell viability,[3]; 100 nM,87.8 ± 2.5%
same,cell viability,[3]; 1000 nM,82.4 ± 5.8%
same,cell viability,[3]; 10000 nM,79.9 ± 6.7%
same,cell viability,[4]; 1 nM,106.8 ± 0.57%
same,cell viability,[4]; 10 nM,96.8 ± 3%
same,cell viability,[4]; 100 nM,74.8 ± 3.2%
same,cell viability,[4]; 1000 nM,38.2 ± 1.2%
same,cell viability,[4]; 10000 nM,40.6 ± 3.4%
same,cell viability,[5]; 1 nM,96.9 ± 0.14%
same,cell viability,[5]; 10 nM,101.3 ± 0.99%
same,cell viability,[5]; 100 nM,92.2 ± 3.8%
same,cell viability,[5]; 1000 nM,97.4 ± 0.85%
same,cell viability,[5]; 10000 nM,96.8 ± 2.9%
same,drug sensitivity score,[6],2.6 ± 0.28
same,drug sensitivity score,[7],0
same,drug sensitivity score,[8],3.15 ± 2.6
same,drug sensitivity score,[9],14.5 ± 0.28
same,drug sensitivity score,[10],0
same,relative viability EC50,[12],> 10 µM
same,relative viability EC50,[13],> 10 µM
same,relative viability EC50,[15],0.119 µM
same,relative viability EC50,[14],> 10 µM
COC[C@H](C)Oc1cc(O[C@@H](C)Cc2ccccc2)cc(C(=O)Nc2ccc(C(=O)O)cn2)c1 [GKA-50],cell viability,[2]; 1 nM,96.9%
same,cell viability,[2]; 10 nM,103%
same,cell viability,[2]; 100 nM,97.8%
same,cell viability,[2]; 1000 nM,107%
same,cell viability,[2]; 10000 nM,98.2%
same,cell viability,[3]; 1 nM,100%
same,cell viability,[3]; 10 nM,97%
same,cell viability,[3]; 100 nM,96.2%
same,cell viability,[3]; 1000 nM,96.2%
same,cell viability,[3]; 10000 nM,92.7%
same,cell viability,[4]; 1 nM,112%
same,cell viability,[4]; 10 nM,105%
same,cell viability,[4]; 100 nM,99.5%
same,cell viability,[4]; 1000 nM,120%
same,cell viability,[4]; 10000 nM,113%
same,cell viability,[5]; 1 nM,103%
same,cell viability,[5]; 10 nM,104%
same,cell viability,[5]; 100 nM,103%
same,cell viability,[5]; 1000 nM,99.4%
same,cell viability,[5]; 10000 nM,98.8%
same,drug sensitivity score,[7],0
same,drug sensitivity score,[8],0
same,drug sensitivity score,[9],0
same,drug sensitivity score,[10],0
same,relative viability EC50,[12],> 10 µM
same,relative viability EC50,[13],> 10 µM
same,relative viability EC50,[15],> 10 µM
same,relative viability EC50,[14],> 10 µM
CCCCCCCCCCCCCCCc1cccc(OCC(=O)NCCO)c1 [PDP-EA],cell viability,[2]; 1 nM,102%
same,cell viability,[2]; 10 nM,87.2%
same,cell viability,[2]; 100 nM,94.9%
same,cell viability,[2]; 1000 nM,91.5%
same,cell viability,[2]; 10000 nM,91.7%
same,cell viability,[3]; 1 nM,105%
same,cell viability,[3]; 10 nM,109%
same,cell viability,[3]; 100 nM,98.2%
same,cell viability,[3]; 1000 nM,109%
same,cell viability,[3]; 10000 nM,109%
same,cell viability,[4]; 1 nM,102%
same,cell viability,[4]; 10 nM,113%
same,cell viability,[4]; 100 nM,95.6%
same,cell viability,[4]; 1000 nM,115%
same,cell viability,[4]; 10000 nM,103%
same,drug sensitivity score,[7],0
same,drug sensitivity score,[8],0
same,drug sensitivity score,[9],0
same,relative viability EC50,[12],> 10 µM
same,relative viability EC50,[13],> 10 µM
same,relative viability EC50,[15],> 10 µM
OC(c1ccc(-c2ccc(CN3CCN(Cc4ccncc4)CC3)cc2)c(F)c1)(C(F)(F)F)C(F)(F)F [SR-2211],cell viability,[1]; 1 nM,103%
same,cell viability,[1]; 10 nM,99.8%
same,cell viability,[1]; 100 nM,103%
same,cell viability,[1]; 1000 nM,100%
same,cell viability,[1]; 10000 nM,103%
same,cell viability,[2]; 1 nM,101%
same,cell viability,[2]; 10 nM,101%
same,cell viability,[2]; 100 nM,93.6%
same,cell viability,[2]; 1000 nM,95.9%
same,cell viability,[2]; 10000 nM,95.5%
same,cell viability,[3]; 1 nM,113%
same,cell viability,[3]; 10 nM,95.4%
same,cell viability,[3]; 100 nM,101%
same,cell viability,[3]; 1000 nM,86.4%
same,cell viability,[3]; 10000 nM,76.1%
same,cell viability,[4]; 1 nM,94.2%
same,cell viability,[4]; 10 nM,101%
same,cell viability,[4]; 100 nM,98.8%
same,cell viability,[4]; 1000 nM,95.4%
same,cell viability,[4]; 10000 nM,58%
same,cell viability,[5]; 1 nM,98.4%
same,cell viability,[5]; 10 nM,106%
same,cell viability,[5]; 100 nM,102%
same,cell viability,[5]; 1000 nM,102%
same,cell viability,[5]; 10000 nM,95.7%
same,drug sensitivity score,[6],0
same,drug sensitivity score,[7],0
same,drug sensitivity score,[8],2.4
same,drug sensitivity score,[9],2.9
same,drug sensitivity score,[10],0
same,relative viability EC50,[11],> 10 µM
same,relative viability EC50,[12],> 10 µM
same,relative viability EC50,[13],> 10 µM
same,relative viability EC50,[14],> 10 µM
O=C1c2c(O)cccc2C([C@@H]2O[C@H](CO)[C@@H](O)[C@H](O)[C@H]2O)c2cc(CO)cc(O)c21 (stereo not given in full) [aloin],cell viability,[2]; 1 nM,104%
same,cell viability,[2]; 10 nM,95.7%
same,cell viability,[2]; 100 nM,103%
same,cell viability,[2]; 1000 nM,104%
same,cell viability,[2]; 10000 nM,97.3%
same,cell viability,[3]; 1 nM,92.1%
same,cell viability,[3]; 10 nM,104%
same,cell viability,[3]; 100 nM,96.6%
same,cell viability,[3]; 1000 nM,93.9%
same,cell viability,[3]; 10000 nM,99.4%
same,cell viability,[4]; 1 nM,106%
same,cell viability,[4]; 10 nM,94.1%
same,cell viability,[4]; 100 nM,103%
same,cell viability,[4]; 1000 nM,94.7%
same,cell viability,[4]; 10000 nM,103%
same,cell viability,[5]; 1 nM,96.9%
same,cell viability,[5]; 10 nM,100%
same,cell viability,[5]; 100 nM,92.9%
same,cell viability,[5]; 1000 nM,97.4%
same,cell viability,[5]; 10000 nM,92.7%
same,drug sensitivity score,[7],0
same,drug sensitivity score,[8],0
same,drug sensitivity score,[9],0
same,drug sensitivity score,[10],0
same,relative viability EC50,[12],> 10 µM
same,relative viability EC50,[13],> 10 µM
same,relative viability EC50,[15],> 10 µM
same,relative viability EC50,[14],> 10 µM
COc1cc2c(Oc3ccc4[nH]c(C)cc4c3F)ccnc2cc1OCC1(N)CC1 [anlotinib],cell viability,[1]; 1 nM,91.2%
same,cell viability,[1]; 10 nM,98.6%
same,cell viability,[1]; 100 nM,97%
same,cell viability,[1]; 1000 nM,95.2%
same,cell viability,[1]; 10000 nM,84.4%
same,cell viability,[2]; 1 nM,94.8%
same,cell viability,[2]; 10 nM,93.4%
same,cell viability,[2]; 100 nM,99.3%
same,cell viability,[2]; 1000 nM,100%
same,cell viability,[2]; 10000 nM,84.5%
same,cell viability,[3]; 1 nM,91.7%
same,cell viability,[3]; 10 nM,93.8%
same,cell viability,[3]; 100 nM,94.4%
same,cell viability,[3]; 1000 nM,87.4%
same,cell viability,[3]; 10000 nM,76.2%
same,cell viability,[4]; 1 nM,106%
same,cell viability,[4]; 10 nM,99.6%
same,cell viability,[4]; 100 nM,101%
same,cell viability,[4]; 1000 nM,103%
same,cell viability,[4]; 10000 nM,59.2%
same,cell viability,[5]; 1 nM,95.1%
same,cell viability,[5]; 10 nM,102%
same,cell viability,[5]; 100 nM,96.9%
same,cell viability,[5]; 1000 nM,99.4%
same,cell viability,[5]; 10000 nM,54.7%
same,drug sensitivity score,[6],0.5
same,drug sensitivity score,[7],0.2
same,drug sensitivity score,[8],1.8
same,drug sensitivity score,[9],1.8
same,drug sensitivity score,[10],2.4
same,relative viability EC50,[11],> 10 µM
same,relative viability EC50,[12],> 10 µM
same,relative viability EC50,[13],> 10 µM
